# Assay results reported in PMC9633586 (Biochemistry, 2022).
# Target: Cj1438 (Campylobacter jejuni, UniProt Q0P8H6)
# Experiment: […] NMR, formation of S-11
# Format: biochemical
# Conditions: 20 mM MgCl2, 10 mM ATP, 10 mM D-glucuronate, 50 mM HEPES/K+ pH 8.0, 25 °C
smiles,measurement,value
"N[C@@H](CO)COP(=O)(O)O [S-4, S-serinol phosphate]","31P NMR, formation of S-11","Cj1438 catalyzes the formation of compound S-11 using D-glucuronate, MgATP, and S-serinol phosphate (S-4)."
